# Assay results: patent publication US8263326B2, “Compounds and methods for modulating activation of NF-κB” (Signal Pharmaceuticals, LLC, priority 1998, dated 2012)
# Non-standard residues stand in square brackets, D forms with d. No end group written: not given here. pS = N[C@@H](COP(=O)(O)O)C(=O)O
# B1: mβ-TrCP: FLAG-tagged mouse β-TrCP, E3 family member (protein)
# chain: MDPAEAVLQEKALKFMNSSEREDCNNGEPPRKIIPEKNSLRQTYNSCARLCINQETVCLTSTAMKTENCVAKAKLANGTSSMIVPKQRKLSASYEKEKELCVKYFEQWSESDQVEFVEHLISQMCHYQHGHINSYLKPMLQRDFITALPARGLDHIAENILSYLDAKSLCAAELVCKEWYRVTSDGMLWKKLIERMVRTDSLWRGLAERRGWGQYLFKNKPPDENAPPNSFYRALYPKIIQDIETIESNWRCGRHSLQRIHCRSETSKGVYCLQYDDQKIVSGLRDNTIKIWDKSTLECKRILTGHTGSVLCLQYDERVIITGSSDSTVRVWDVNAGEMLNTLIHHCEAVLHLRFNNGMMVTCSKDRSIAVWDMASPTDITLRRVLVGHRAAVNVVDFDDKYIVSASGDRTIKVWNTSTCEFVRTLNGHKRGIACLQYRDRLVVSGSSDNTIRLWDIECGACLRVLEGHEELVRCIRFDNKRIVSGAYDGKIKVWDLMAALDPRAPAGTLCLRTLVEHSGRVFRLQFDEFQIVSSSHDDTILIWDFLNDPAAHAEPPRSPSRTYTYISR
# modifications: left off: small tags and cut ends
# notes: FLAG-tagged mouse β-TrCP, E3 family member
# Experiments:
# [1] = system: NF-κB nuclear translocation in HeLa cells; test: Microinjection into HeLa cells, TNFα activation, p65 nuclear staining; type: cell-based, human; conditions: 5 mg/ml peptide microinjected
# Experimental: (§1) HeLa cells were plated on a grid coverslips (Cellocate, Eppendorf) 18 hours before microinjection. Microinjection was performed with a 22 amino acid pIκBα peptide (pp21; Table I and SEQ ID NO:9) or a control phospho-Fos peptide (SEQ ID NO: 10) using a semi-automated apparatus (Eppendorf). Peptides were injected into the cell cytoplasm at a concentration of 5 mg/ml in 100 mM KCl, 5 mM Na2HPO4 (pH 7.2), and immediately activated with TNFα (200 units/mL) for either 20 minutes (for NF-κB translocation) or 3 hours (for E-selectin expression). Following activation, the cells were fixed and stained with p65 specific antibodies (Mercurio et al., Genes & Dev. 7:705, 1993; Santa Cruz) or monoclonal anti-E-selectin antibodies (R&D Systems).
# [2] = system: E-selectin expression in primary human vascular endothelial cells (HUVEC); test: Microinjection into HUVEC, TNFα activation, E-selectin staining; type: cell-based; conditions: microinjected peptide, TNFα 3 hours
# Experimental: as §1
# To further assess the functional consequences of NF-κB inhibition, the IκB-E3 inhibitory peptide was microinjected into primary human vascular endothelial cells (HUVEC; Chen et al, J. Immunol 155:3538, 1995). These cells respond to TNFα stimulation by surface expression of NF-κB regulated adhesion proteins, such as E-selection. HUVEC cells were plated, microinjected and stimulated as described above. Three hours post stimulation the cells were fixed and stained for expression of the NF-κB dependent E-selection. 75%-85% of the HUVEC cells were intensely stained for E-selectin following TNFα stimulation in several experiments. […] In contrast, the control pp-Fos peptide had no effect on E-selectin expression, as compared to non-microinjected cells (FIGS. 4F and 4H, column 4). Microinjection of a control, S32736A substituted IκBα peptide had no effect on the rate of E-selectin expression.
# [3] = system: IκBα-ubiquitin ligase (pIκBα ubiquitination); test: In vitro ubiquitination assay of phosphorylated, NF-κB complex-associated IκBα in HeLa cell extract; type: biochemical, human; conditions: peptide at a concentration of 400 μM; Bestatin 40 μg/ml
# Experimental: Following incubation, 1 μl of anti-p65 serum was added, and the NF-κB immune complex was immobilized to Protein A-Sepharose® and subjected to in vitro ubiquitination in HeLa cell extract as described by Alkalay et al. Ubiquitinated proteins were separated by SDS-PAGE and visualized by autoradiography.
# To identify the IκBα-ubiquitin ligase recognition motif, various peptides were added at varying concentrations to the reaction mixtures in the presence of the peptidase inhibitor Bestatin (40 μg/ml). The peptides spanned the N-terminal signaling domain of the protein, and were phosphorylated at one or both serine residues (32 and 36), or were unmodified or serine-substituted. These peptides were included in the ubiquitination reaction at different concentrations and tested for inhibition of pIκBα specific ubiquitination. When conjugation of free IκBα was monitored, the translated protein was added directly to the conjugation reaction mixture.
# pIκBα degradation = test: Ubiquitin-dependent in vitro degradation assay with extracts from stimulated HeLa cells; type: biochemical, human; conditions: 40 μM peptide, FIG. 2
# Experimental: FIG. 2 is an autoradiogram depicting the results of an in vitro ubiquitin-dependent degradation assay performed using extracts from stimulated HeLa cells. In each lane of the SDS-PAGE, the level of phosphorylated (upper band) and non-phosphorylated (lower band) HA-tagged IκBα polypeptide (SEQ ID NO: 12) following the degradation assay is shown. […] In lanes 2-6, ATP was included in the reaction mixture. 40 μM candidate modulating agents were added to the reactions shown in lanes 3-6: doubly phosphorylated IκBα peptide (pp21 (SEQ ID NO:9), lane 3); doubly phosphorylated IκBα peptide (pp19 (SEQ ID NO:8), lane 4); c-Fos phosphopeptide (ppFos (SEQ ID NO: 10), lane 5); and non-phosphorylated IκBα peptide (p21 (SEQ ID NO:9), lane 6).
# The inhibitory pIκBα peptides were tested in a complementary ubiquitin-dependent in vitro degradation assay (Orian et al., J. Biol. Chem. 270:21707, 1995; Stancovski et al., Mol. Cell. Biol. 75:7106, 1995). Using this assay, only pIκBα derived from stimulated cells is degraded in vitro in a ubiquitin-dependent manner, whereas the non-phosphorylated IκBα from the same cell extract is not subject to degradation.
# IκB E3 in HeLa lysate = test: Fractionation of HeLa lysate over peptide-Sepharose columns, flow-through tested in ubiquitination assay; type: binding, human; conditions: peptide coupled to NHS-Sepharose, HeLa extract, FIG. 3A
# Experimental: pIκBα-ubiquitin conjugation and degradation requires a full complement of the ubiquitin system enzymes: E1, a specific E2 derived from the ubiquitin system fraction I, E2F1 (Alkalay et al., Proc. Natl. Acad. Sci. USA 92:10599, 1995; Chen et al., Cell 84:853, 1996) and a Fraction II-component E3. To identify the ubiquitin system component involved in the substrate recognition, HeLa lysate was fractionated over IκBα phosphopeptide columns, and the flow-through fractions were assayed for pIκBα conjugation. Peptides were coupled to NHS-Sepharose® (Pharmacia) according to the manufacturer's instructions at a concentration of 2 mg/ml. 100 μg of HeLa extract were incubated with 2.5 μl coupled resin in the presence of 0.1% NP40 and 3% ovalbumin for 1 hour at 4° C. The resin was discarded and the unbound material tested in the ubiquitination assay described above.
# pIκBα = target: T1, pIκBα (Homo sapiens, UniProt P25963); test: Binding of immobilized FLAG-tagged E3 family members to IκBα/NF-κB complex (Western blot); conditions: FIG. 11A
# T1 construct: The IκBα/NF-κB complex was immunopurified from HeLa cells; endogenous in cells; host or cells: HeLa cells
# T1 sequence (P25963 whole entry): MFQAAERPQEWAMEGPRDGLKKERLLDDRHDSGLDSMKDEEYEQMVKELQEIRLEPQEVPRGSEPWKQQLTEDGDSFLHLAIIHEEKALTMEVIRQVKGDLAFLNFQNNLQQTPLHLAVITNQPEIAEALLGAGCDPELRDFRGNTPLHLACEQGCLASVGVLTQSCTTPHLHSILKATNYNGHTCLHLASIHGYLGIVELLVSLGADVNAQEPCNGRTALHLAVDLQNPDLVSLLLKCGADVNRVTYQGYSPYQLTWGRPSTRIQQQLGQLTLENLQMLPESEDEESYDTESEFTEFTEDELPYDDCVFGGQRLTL
# T1 sequence (Q04206 whole entry partner): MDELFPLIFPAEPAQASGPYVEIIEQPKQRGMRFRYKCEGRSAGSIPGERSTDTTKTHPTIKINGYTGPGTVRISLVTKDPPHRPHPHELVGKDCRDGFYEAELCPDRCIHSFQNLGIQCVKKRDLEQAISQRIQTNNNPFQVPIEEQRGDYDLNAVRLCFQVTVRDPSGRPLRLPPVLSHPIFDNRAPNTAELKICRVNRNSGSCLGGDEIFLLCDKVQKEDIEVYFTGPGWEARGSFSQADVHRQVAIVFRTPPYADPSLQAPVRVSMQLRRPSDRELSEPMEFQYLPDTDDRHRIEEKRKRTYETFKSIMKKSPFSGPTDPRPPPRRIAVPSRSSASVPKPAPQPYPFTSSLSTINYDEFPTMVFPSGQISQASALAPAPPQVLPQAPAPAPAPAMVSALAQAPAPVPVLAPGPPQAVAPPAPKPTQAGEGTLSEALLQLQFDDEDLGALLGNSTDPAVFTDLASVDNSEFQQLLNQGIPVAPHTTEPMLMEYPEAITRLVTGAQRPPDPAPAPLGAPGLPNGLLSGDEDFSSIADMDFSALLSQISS
# Experimental: FIGS. 11A-11C are Western blots illustrating binding and ubiquitination specificity of E3 ubiquitin ligase family members. Within these figures, mβ-TrCP indicates mouse β-TrCP, hβ-TrCP indicates human β-TrCP, Δβ-TrCP indicates human β-TrCP with a deletion of the F box region and Slimb indicates the Drosophila Slimb protein. FIG. 11A illustrates selective binding to pIκBα. Proteins were immunoprecipitated through a FLAG epitope from transfected 293T cells, incubated with immunopurified IκBα/NF-κB complex, which had been treated (−/+IKK) as indicated and the bound material was analyzed by Western blotting with the indicated antibodies. […] FIG. 11C illustrates in vitro ubiquitination of pIκBα by the E3 family member proteins. Immunopurified FLAG-tagged proteins were incubated with ^35 S-labeled IκBα/NF-κB complexes, treated (−/+IKK) as indicated and subject to ubiquitination in the presence of ATPγS, ubiquitin. E1 and UBC5C. The IκBα substrate (composed of full-length and two degradation products), pIκBα-polyubiquitin conjugates and molecular size markers are indicated on the left.
# The ability of these proteins to bind pIκBα specifically and assist in its ubiquitination was examined in a cell-free system. The IκBα/NF-κB complex was immunopurified from HeLa cells and the immune complex was either phosphorylated with IKK2-EE or mock-phosphorylated as described above. It was then incubated with the following immobilized FLAG-tagged E3 family members immunoprecipitated from transfected 293 cells: mouse β-TrCP (mβ-TrCP), human β-TrCP (hβ-TrCP), human β-TrCP with a deletion of the F box region residues 122-168 (Δβ-TrCP) and the Drosophila Slimb protein. The bound material was analyzed by Western blotting with anti-IκBα and anti-FLAG antibodies. […] Furthermore, β-TrCP binding was abrogated by a peptide representing the pIκBα recognition motif (pp10; DRHDS(PO3)GLDS(PO3)M (SEQ ID NO:29); see FIG. 11B, lane 3), but not by the control peptide (lane 4), specifying the site of pIκBα recognition of the conserved DS(PO3)GLDS(PO3) (SEQ ID NO:30) sequence.
Molecule,effect on the ubiquitination of pIκB [3],effect on specific pIκBα degradation (pIκBα degradation),IκBα conjugation capacity of column flow-through fraction (IκB E3 in HeLa lysate),effect on E-selectin expression [2],other results
"pp21: doubly phosphorylated IκBα peptide, SEQ ID NO:9; 22 amino acid pIκBα peptide (CKKERLLDDRHD[pS]GLD[pS]MKDEE; listed as Homo sapiens)",,,,,"microinjected cells in which TNFα-stimulated NF-κB activation was abolished ([1]; TNFα 200 units/mL 20 minutes, several experiments): 50%-70%; microinjected cells with inhibition of E-selectin expression [2]: 70%-80%"
"ppFos: c-Fos phosphopeptide, SEQ ID NO:10, control (IGRRGKVEQLSPEEEEKRR; not fully specified (residue 11); also: phosphorylated, sites not given here; listed as Homo sapiens)",no detectable effect,no effect,retained full IκBα conjugation capacity,no effect,effect on the rate of NF-κB induced nuclear translocation ([1]; compared to non-microinjected cells): no effect
"p21 S/A: serine 32, 36 to alanine substituted IκBα peptide, SEQ ID NO:11 (CKKERLLDDRHDAGLDAMKDEE; listed as Homo sapiens)",no detectable effect,,retained full IκBα conjugation capacity,no effect,
"p21: non-phosphorylated IκBα peptide, SEQ ID NO:9 (CKKERLLDDRHDSGLDSMKDEE; listed as Homo sapiens)",no detectable effect,no effect,,,
B1,,,,,"relative binding of IκBα / pIκBα (pIκBα; comparison between family members): far better than the highly homologous Drosophila protein; binding to IKK-phosphorylated versus mock-phosphorylated IκBα (pIκBα; FLAG-tagged protein from transfected 293 cells): exclusively bound IKK-phosphorylated, but not mock-phosphorylated, IκBα"
